Earlier results in patent US10934405B2, “Synthetic polymer film whose surface has microbicidal activity, plastic product which includes synthetic polymer film, sterilization method with use of surface of synthetic polymer film, photocurable resin composition, and manufacturing method of synthetic polymer film” (Sharp Kabushiki Kaisha, priority 2018, dated 2021).

Conditions: for Water Solubility: YES/NO, TABLE 1A and 1B

Row | Water Solubility (symbol) (TABLE 6A and 6B) | Compound | Water Solubility
1 |  | polyethylene glycol (400) diacrylate [Example M280] | YES
2 |  | C=COCCOCCOC(=O)C=C [VEEA, 2-(2-vinyloxyethoxy)ethyl acrylate] | YES
3 | ◯ | Nc1nc2ncc(CNc3ccc(C(=O)N[C@@H](CCC(=O)O)C(=O)O)cc3)nc2c(=O)[nH]1 [folic acid] | 
4 |  | polyethylene glycol (200) diacrylate [Example M282] | YES
